Source: EPA's aquatic toxicity sets

Legend:
Tetrahymena pyriformis = assay: 48 h IGC50 (-log10 mol/L); higher = more toxic
Pimephales promelas = assay: 96 h LC50 (-log10 mol/L); higher = more toxic
Daphnia magna = assay: 48 h LC50 (-log10 mol/L); higher = more toxic

SMILES	48 h IGC50 (-log10 mol/L) (Tetrahymena pyriformis)	96 h LC50 (-log10 mol/L) (Pimephales promelas)	48 h LC50 (-log10 mol/L) (Daphnia magna)
CC#N	0.723	1.61	1.06
CC(O)CC(C)(C)O (stereo unspecified)	1.05	1.04	1.22
Clc1cccc(Cl)c1	3.56	4.27	4.3
COc1cccc(O)c1	2.67	3.22	3.48
COP(=S)(OC)Oc1ccc(SC)c(C)c1		4.94	6.79
Cc1cccc([N+](=O)[O-])c1	3.42	3.64	4.04
O=C1C2(Cl)C3(Cl)C4(Cl)C(Cl)(Cl)C5(Cl)C3(Cl)C1(Cl)C5(Cl)C24Cl (stereo unspecified)		6.11	6.39
CCCCCCCO	3.1	3.51	3.23
C=C(C)[C@H]1Cc2c(ccc3c2O[C@@H]2COc4cc(OC)c(OC)cc4[C@@H]2C3=O)O1		7.82	8.03
OCCOCCOCCO		0.309	0.46
Clc1ccc(Cl)c(-c2ccccc2Cl)c1		6.88	6.67
Nc1ccc(Cl)c(Cl)c1Cl	4.35	4.74	5.43
CC(C)CO		1.7	1.82
CCOCC		1.46	1.73
ClCC(Cl)Cl		3.21	3.49
Oc1ccc2ccccc2c1		4.62	4.61
C1=CC2C3C=CC(C3)C2C1 (stereo unspecified)		3.41	4.1
CCCN(CCC)c1c([N+](=O)[O-])cc(C(C)C)cc1[N+](=O)[O-]		5.85	7.01
ClC(Cl)C(Cl)Cl		3.92	3.46
O=C(Nc1ccc(Cl)cc1)Nc1ccc(Cl)c(Cl)c1		6.54	7.48
CCCCC(=O)O	2.73	3.12	3.36
CCOP(=S)(OCC)SCSC(C)(C)C		6.81	8.21
CCCCCCCCCc1ccc(O)cc1	5.47	5.91	6.06

SMILES	48 h IGC50 (-log10 mol/L) (Tetrahymena pyriformis)	96 h LC50 (-log10 mol/L) (Pimephales promelas)	48 h LC50 (-log10 mol/L) (Daphnia magna)
CC1(C)C(C=C(Cl)Cl)C1C(=O)OC(C#N)c1ccc(F)c(Oc2ccccc2)c1 (stereo unspecified)		8.6	9.13
Cc1ccccc1O	2.71	3.89	3.86
c1ccc(-c2ccccc2)cc1	4.05	4.72	4.91
O=C(O)COc1ccc(Cl)cc1Cl		2.92	3.78
COP(=S)(OC)Oc1ccc([N+](=O)[O-])c(C)c1		4.81	7.67
CNC(=O)O/N=C/C(C)(C)SC		5.17	5.55
CC=O		3.08	0.55
O=C(O)CNCP(=O)(O)O		4.57	3.91
COP(=S)(OC)SCN1C(=O)c2ccccc2C1=O		4.59	5.6
Clc1ccccc1-c1ccccc1		4.67	5.42
Cc1cc(O)ccc1Cl	3.8	4.42	4.85
O=[N+]([O-])OCC(CO[N+](=O)[O-])O[N+](=O)[O-]		4.92	3.85
CCOP(=O)(OCC)Oc1ccc([N+](=O)[O-])cc1		5.98	9.14
NC(=O)c1c(Cl)cccc1Cl		2.61	2.35
CC(C)=O	0.796	0.854	0.673
ClC1=C(Cl)[C@]2(Cl)[C@H]3[C@H]([C@H](Cl)[C@]4(Cl)O[C@H]34)[C@@]1(Cl)C2(Cl)Cl		8.1	5.51
CC(=O)CC(C)=O		2.85	3.32
CCOP(=S)(OCC)Oc1ccc([N+](=O)[O-])cc1		5.32	8.15
CCN(CC)C(=O)c1cccc(C)c1		3.24	3.08
Oc1c(Cl)cc(Cl)c(Cl)c1Cl		5.35	6.11
COP(=S)(OC)Oc1ccc([N+](=O)[O-])cc1		4.51	7.34
CCNc1nc(Cl)nc(NC(C)C)n1		4.16	3.6
C=CC=O	4.89	6.32	5.99

SMILES	48 h IGC50 (-log10 mol/L) (Tetrahymena pyriformis)	96 h LC50 (-log10 mol/L) (Pimephales promelas)	48 h LC50 (-log10 mol/L) (Daphnia magna)
C=Cc1ccccc1	2.98	3.79	3.53
CCCCOC(=O)c1ccccc1C(=O)OCCCC		5.37	4.88
CCCO	1.25	1.12	0.935
ClC(Cl)(Cl)C(Cl)(Cl)Cl		5.24	4.93
CCC(O)C(C)CO (stereo unspecified)		1.13	1.22
CCCCCCCCn1sccc1=O		6.18	6.07
CC(Cl)(Cl)Cl		3.4	3.72
CCOP(=S)(OCC)Oc1cc(C)nc(C(C)C)n1		4.81	8.56
CCc1ccccc1		3.95	4.5
Cc1ccc(O)cc1	2.84	3.67	3.71
CC(C)[C@H](C(=O)O[C@H](C#N)c1cccc(Oc2ccccc2)c1)c1ccc(Cl)cc1		9.26	8.58
CC1=CC(=O)CC(C)(C)C1		2.74	3.06
C1CO1		2.72	2.33
CCO	1.01	0.534	0.59
c1ccc2c(c1)[nH]c1ccccc12	3.91	5.25	4.7
CCCN(CCC)c1c([N+](=O)[O-])cc(C(F)(F)F)cc1[N+](=O)[O-]		6.5	6.24
CC(N)=S		2.44	3.64
Cc1cccc(C)c1		3.82	3.65
CC(Cl)CCl (stereo unspecified)		2.93	3.34
ClC=C(Cl)Cl		3.47	3.48
COP(=O)(OC)C(O)C(Cl)(Cl)Cl (stereo unspecified)		3.37	7.7
c1ccc2c(c1)-c1cccc3cccc-2c13		6.77	6.28
OCCO		0.037	0.122

SMILES	48 h IGC50 (-log10 mol/L) (Tetrahymena pyriformis)	96 h LC50 (-log10 mol/L) (Pimephales promelas)	48 h LC50 (-log10 mol/L) (Daphnia magna)
c1ccc2nc3ccccc3cc2c1	4.4	4.89	4.85
CC1(C)[C@H](C=C2CCCC2)[C@H]1C(=O)OCc1coc(Cc2ccccc2)c1		8.57	8.16
Oc1cc(Cl)c(Cl)cc1Cl	5.1	5.27	4.86
CCCCCC	3.72	4.54	4.34
Oc1ccccc1	2.65	3.5	3.85
Cc1ccc([N+](=O)[O-])cc1		3.44	4.01
CCCCC(CC)COC(=O)c1ccccc1C(=O)OCC(CC)CCCC (stereo unspecified)		2.55	4.55
CCC1(c2ccccc2)C(=O)NC(=O)NC1=O		2.68	2.2
O=P(O)(O)CCCl		3.05	3.04
c1ccc(Oc2ccccc2)cc1		4.63	5.43
Cc1ccccc1	3.25	3.43	3
CC1=CC(=O)c2ccccc2C1=O	4.54	6.2	5.54
O=[N+]([O-])c1ccccc1	3.14	3.02	3.62
ClC(Cl)C(Cl)(Cl)Cl		4.43	4.19
Clc1cccc(-c2ccccc2)c1		4.38	5.64
S=c1[nH]c2ccccc2s1		4.18	4.49
CCN(CC)c1nc(C)cc(OP(=S)(OC)OC)n1		5.09	9.14
C1CCCCC1		3.3	4.34
Cc1ccccc1C		3.81	3.79
c1ccc(C2CO2)cc1 (stereo unspecified)		4	4.02
CC(C)(c1ccc(O)cc1)c1ccc(O)cc1		4.69	4.3
